The values that follow come from patent US20040043992A1, “Meloxicam for alleviating organ injury during organ operation or transplantation” (Boehringer Ingelheim International GmbH, priority 2002, published 2004).

Assay [1] has as its system ischemia/reperfusion injury of the liver. Put plainly: in vivo warm ischemia (Pringle's maneuver) and reperfusion of the liver in rats. On the set-up: species or system male Wistar rats. Conditions: for Creatinine / GPT / LDH / TNF-alpha: 30 minutes warm ischemia of the liver, 60 minutes of reperfusion, GdCl3 10 mg/kg 24 hours prior. The procedure: In the following experiment, the ability of an in vivo treatment with meloxicam to reduce ischemia/reperfusion injury of the liver was assessed.
For this purpose, male Wistar rats (250 g to 280 g body weight) were anesthetized with intraperitoneal application of pentobarbital (50 mg/kg body weight) and atropine (0.05 mg). All animals were subjected to a 30 minutes warm ischemia of the liver (Pringle's maneuver) and 60 minutes of reperfusion after median lapatomtomy.
One group of animals received no additional treatment (Control group). Another group was given 1 mg/kg body weight meloxicam just prior to the operation (COX-2I group). A third group was given 10 mg/kg body weight gadolinium chloride (GdCl3) 24 hours prior to the operation (GdCl3 group). A fourth group was given 10 mg/kg body weight gadolinium chloride 24 hours prior to operation and 1 mg/kg body weight meloxicam just prior to the operation (GdCl3+COX-2I group). Gadolinium chloride provides for a selective depletion of the liver Kupffer cells.
To assess and compare the level of injury in all groups of animals, a measurement of the enzyme release of glutamate pyruvate transaminase (GPT) and lactate dehydrogenase (LDH) was measured as indicator of hepatocellular injury, and the release of creatinine and TNF-alpha as an indicator of inflammation. To quantify the cellular damage on a structural level, histochemistry was performed with HE staining as well as immunohistochemistry using the TUNEL assay to quantify the apoptotic changes of the livers.

Assay [2] deals with livers of NHBDs (Non Heart Beating Donors). The experiment in a line: ischemic in vitro preservation and reperfusion of livers of Non Heart Beating Donors. The arrangement: species or system Wistar rat. Conditions: meloxicam 4.6 mg/kg body weight added to HTK solution; 60 minutes warm ischemia, 24 hours at 4° C., 45 minutes of reperfusion. The protocol:
A previous (unpublished) study was been performed by the inventors on the ischemic in vitro preservation of livers of NHBDs (Non Heart Beating Donors). The aim of this study was to test the ability of meloxicam to ameliorate the ischemia/reperfusion injury of these livers. The experiments were performed using a Wistar rat model. Cardiac arrest was induced in Wistar rats under anesthesia by phrenotomy. The livers were excised after 60 minutes of warm ischemia, flushed with 20 mL of Ringer's solution containing heparin and subsequently with 60 mL of Histidine-Tryptophane-Cetoglutarate (or HTK) solution and preserved for 24 hours at 4° C. In half of the experiments, meloxicam (4.6 mg/kg body weight) was added to the HTK solution. Reperfusion was carried out in vitro (3 mL/g/min) with oxygenated buffer at 37° C. After 45 minutes of reperfusion, portal venous pressure (PVP) was measured to evaluate vascular conductivity, the enzyme release of alanine aminotransferase (ALT) and […] (GLDH) was measured as indicator of hepatocellular injury, and the bile production and oxygen consumption (VO2) as parameter of functional recovery of the livers. To estimate the impact of oxygen free radicals, the production of malondialdehyde was measured in the hepatic effluent.

Assay [3] has as its system liver injuries after Pringle's maneuver. The settings on record: cited from earlier work; for number of polymorphonuclear neutrophils, lower than in untreated animals: 1 mg/kg.
The subject of assay [4] is warm ischemia/reperfusion injury (hepatic parenchymal injury). Conditions: pre- and post-ischemic administration; serum ALT, AST, LDH, HA; cited from earlier work.
Assay [5] concerns injury associated with ischemia/reperfusion of the brain, liver, kidney, lung, intestine, heart, and pancreas. Conditions: administered 30 minutes prior to an hemorrhagic shock; cited from earlier work.
Assay [6] deals with ischemia/reperfusion injury during organ operation or transplantation. Conditions: in vivo; cited from earlier work.
[7] abbreviates: meloxicam 1 mg/kg just prior to operation.
The mark [8] stands for this setting: 1 mg/kg via the portal vein, 60 minutes warm ischemia.

SMILES strings stand for the structures. Like-named read-outs stand apart in the source and are kept apart here. Square brackets hold non-standard residues; d marks the D form. Peptide text beside a SMILES is read from it. Nle = CCCC[C@H](N)C(=O)O A value given as a limit tells only on which side of the number the result lay.

In assay [1] (setting [7]), `Cc1cnc(NC(=O)C2=C(O)c3ccccc3S(=O)(=O)N2C)s1` [COX-2I, 4-hydroxy-2-methyl-N-(5-methyl-2-thiazolyl)-2H-1,2-benzothiazine-3-carboxamide-1,1-dioxide] returned a Creatinine of 0.65 mg/dL, a GPT of 973 Units/liter, an LDH of 6765 Units/liter and a TNF-alpha of 3.5 pg/mL serum. For the same molecule, in assay [1] (setting [7]), the “lower level of GPT compared to the untreated Control group” value is on record as 3 times, the “lower level of LDH compared to the untreated Control group” value is given as 4 times, the “lower level of TNF-alpha compared to the untreated Control group” value turned out to be 5 times and the “lower level of creatinine compared to the untreated Control group” value is given as 2 times. In assay [1] (meloxicam treated groups, histochemistry), the “necrotic and apoptotic changes of the liver (HE staining, TUNEL assay)” value is given as “less necrotic as well as less apoptotic changes”. The “reduction of infiltration of MPO (myloperoxidase) positive cells into the liver after I/R” value in assay [1] (myeloperoxidase reaction (Hanker-Yates solution)) is reported as about 50%. Further, in assay [2], the “in vitro preservation of grafts from NHBDs” value is on record as “improves the in vitro preservation of grafts from NHBDs” and the “production of free oxygen radicals during reperfusion (malondialdehyde in hepatic effluent)” value is recorded as “decreased the production of free oxygen radicals during reperfusion”.
With `CC(=O)c1ccc(NS(C)(=O)=O)c(Oc2ccc(F)cc2F)c1` [FK3311, 4′-acetyl-2′-(2,4-difluorophenoxy)methanesulfonanilide], the “level of serum enzyme activity (GOT, GPT, LDH) relative to untreated animals” value in assay [3] (setting [8]) is “about half”. Besides, in assay [3] (setting [8]), the “time after reperfusion by which blood flow recovered to the pre-ischemic level” value was at most 30 min. Moreover, the entries for the “number of polymorphonuclear neutrophils, lower than in untreated animals” value in assay [3] (1 hour after reperfusion) and in assay [3] (6 hours after reperfusion) were “about 40%” and “about 25%”, respectively. Also, in assay [4], the “protection against warm ischemia/reperfusion injury” value is on record as “satisfactory protection”.
With `[Cl][Gd]([Cl])[Cl]` [GdCl3, gadolinium chloride], in assay [1] (setting [7]), the Creatinine is 0.94 mg/dL, the GPT came to 1611 Units/liter, the LDH is listed as 12100 Units/liter and the TNF-alpha is 8.05 pg/mL serum.
Regarding `CC(=N)NCCCC[C@H](N)C(=O)O.Cl.Cl` [LNIL, L-N^6-(L-iminoethyl)lysine dihydrochloride], in assay [5], the “injury associated with ischemia/reperfusion of organs” value is “may also contribute to a protective effect”.
`CC(=O)Oc1ccccc1C(=O)O` [aspirin]: in assay [6], the “reduction of ischemia/reperfusion injury during organ operation or transplantation” value is “did not significantly reduce”.
Take `CCCC[C@@H](C=O)NC(=O)[C@H](CC(C)C)NC(=O)[C@H](CC(C)C)NC(C)=O` [calpain inhibitor I] (Ac-Leu-Leu-[Nle]-aldehyde): the “injury associated with ischemia/reperfusion of organs” value in assay [5] was “reduces the injury”.
Regarding `COc1ccc2c(c1)c(CC(=O)O)c(C)n2C(=O)c1ccc(Cl)cc1` [indomethacin], the “reduction of ischemia/reperfusion injury during organ operation or transplantation” value in assay [6] is recorded as “did not significantly reduce”.
